The results in this text go back to PMC7497692 (Investigational New Drugs, 2020).

Data set [1] is described as follows: Metabolite profiling and identification in plasma, urine and feces (part A). In kind it is in vivo, human healthy male volunteers. The following applies: male, human, in vivo; for half-life: apparent t½ of metabolite in plasma; for tmax: tmax of metabolite in plasma. How it is done:
Participants were hospitalized from day 1 to day 16 of the study, and further assessed on days 19, 22, and 25 (trial end). […] Pre-dose feces and urine samples were collected on day 1 and day 2, respectively. Urine was collected at 4- to 12-h intervals on day 1 and every 24 h thereafter up to day 16. Feces were collected every 24 h up to day 16. Provision was made to collect further samples up to day 39 if >1% of the administered dose was detectable in the total (urine and feces) excreta per day on two consecutive measurements.
Metabolite profiling and structure elucidation in plasma, urine, and feces were performed at the Institute of Drug Metabolism and Pharmacokinetics, Merck KGaA, Grafing, Germany, using a radiometric UPLC method coupled to a high-resolution MS. For urine and feces, metabolites were identified in a single pooled sample per matrix and subject (urine pool of 4–120 h and feces pool of 0–192 h), that covered at least 90% of the total radioactivity of the respective matrix excreted. Intervals with low radioactivity were not used for the generation of the pooled samples to avoid dilution, and to increase the signal-to-noise ratio of the respective chromatograms.
The metabolite structure elucidation was performed using the linear trap quadrupole Orbitrap XL hybrid Fourier transform (FT) MS (Thermo Scientific, Dreieich, Germany) coupled to a Waters Acquity UPLC system. Full-scan FT spectra were acquired for measurement of the masses of molecular ions of parent and metabolites. MS^2 fragmentation spectra were acquired after high-energy collisional dissociation of the appropriate molecular ions. Allocation and confirmation of the proposed metabolites to the radioactive peaks were performed using an API4000 QTrap (AB Sciex, Darmstadt, Germany) MS with simultaneous splitting using a fraction collection system (CTC HTS PAL Fraction Collector, Axel Semrau, Sprockhövel, Germany), and offline radioactive measurement using a Topcount NXT® microplate scintillation counter (PerkinElmer, Rodgau, Germany).
The maximum plasma concentration (Cmax) and time to reach maximum concentration (tmax) were derived directly from the plasma concentration–time data. Lag time (tlag) was the time prior to the first measurable (non-zero) concentration. The area under the plasma concentration–time curve from 0 to t (last measurable concentration; AUC0–t) was calculated using a mixed log–linear trapezoidal method. Area under the plasma concentration–time curve until the last sampling time (AUCall), which corresponds to AUC0–240 h within the observation period, was used for metabolite calculations. Amounts excreted in urine, feces, and total (urine + feces) were calculated as the sum of amounts (concentration multiplied by volume) for each collection from time 0 to time t. The terminal rate constant (λz) was used to estimate the terminal half-life (t½) (ln 2/λz), and the area under the concentration–time curve from time 0 to infinity (AUC0–∞). Total body clearance (CL) and apparent body clearance (CL/f) were determined by dose/AUC0–∞, and total volume of distribution (Vz) and apparent volume of distribution (Vz/f) were calculated by dose/(AUC0–∞*λz) after IV and oral administration, respectively. Volume of distribution of the central compartment (Vc) was derived by dividing the dose by the initial drug plasma concentration after IV administration. Absolute bioavailability was calculated as F = (AUCoral/doseoral)/(AUCIV/doseIV) × 100. The ratios (%) AUCtepotinib or metabolite/AUCtotal radioactivity were calculated as a percentage of the molar AUCs.

Data set [2] in a line: Protein binding and blood cell affinity of M506. In kind it is in vitro ADME.

What is called half-life is how long it takes for the measured level to halve. Take `CN1CCC(COc2cnc(-c3cccc(Cn4nc(-c5cccc(C#N)c5)ccc4=O)c3)nc2)CC1=O` (stereo not shown) [M506]: the half-life is 92 h in data set [1] (median) and 66 to 145 h in data set [1] (range). Further, the “% of AUCall of total 14C-radioactivity in plasma” value in data set [1] (po) came to 41%. The tmax was 24 h in data set [1] (po, median) and 24 to 60 h in data set [1] (po, range). Also, the “affinity for blood cells” value in data set [2] is reported as “low affinity for blood cells”. Further, the protein binding entry in data set [2] was “highly protein-bound”.
